In BindingDB's records for doi:10.1021/jm00041a023 (Merck Research Laboratories, 1994):

Target: T1, Gag-Pol polyprotein [588-1027]/[588-1147] (Human immunodeficiency virus 1, UniProt P04585)
T1 construct: 588-1027; 588-1147
Assay: HIV-1 RT Assay
Conditions: pH 8.2
Description: The IC50 of reverse transcriptase is the concentration that inhibits 50% of recombinant HIV-1 RT RNA-directed DNA polymerase activity in vitro.

Work on `O=C1Nc2ccc(Cl)cc2C(C#Cc2cc([N+](=O)[O-])ccn2)(C2CC2)N1` (stereo unspecified) [6-chloro-4-cyclopropyl-4-[2-(4-nitropyridin-2-yl)ethynyl]-1,2,3,4-tetrahydroquinazolin-2-one] yielded an IC50 of over 10 µM.
